Assay results as given in patent US20130225683A1, “Compounds and Pharmaceutical Compositions for Uses in Diabetes” (PROMETIC BIOSCIENCES INC., priority 2010, published 2013).
“Also recorded” adds a separate entry of the source.

Legend:
[1] = tested on: 5/6 nephrectomized (Nx) rat model; assay: 5/6 nephrectomized (Nx) rat model, Compound XIV by gastric gavage once daily; assay type: in vivo, male Wistar rats; conditions: Nx rats, p<0.01
Excerpt: Male 6 week-old Wistar rats were subjected to 5/6 nephrectomy or sham operations. Under fluothane anesthesia, renal ablation was achieved by removing two-thirds of the left kidney followed by a right unilateral nephrectomy 7 days later. Sham rats underwent exposition of the kidneys and removal of the perirenal fat. Animals that underwent the sham operation were given vehicle (saline) and were used as controls. Nx animals were divided in groups receiving the vehicle or Compound XIV. Saline or Compound XIV was given by gastric gavage once daily up to the sacrifice. Serum glucose was measured every three weeks in order to assess the effect of the compound on serum glucose concentration in a renal disease model. Rats were sacrificed at day 126.

[2] = tested on: streptozotocin-induced diabetes; assay: Streptozotocin-induced diabetes model in rats, oral Compound I; assay type: in vivo, male Sprague Dawley rats
Procedure: Diabetes was induced by a single intraperitoneal administration of streptozotocin (65 mg/kg of body weight) in fasted male Sprague Dawley rats, weighing approximately 200-250 g. After 48 hours, rats with plasma glucose more than 10 mmole/L were enrolled and treated with vehicle or compounds. Streptozotocin is well known to induce […] toxicity. […] Ketonuria is a medical condition in which ketone bodies are present in the urine. It is seen in conditions in which the body produces excess ketones as an alternative source of energy. It is seen during starvation or more commonly in diabetes. […] Proteinuria is a medical condition in which an excess of protein is present in the urine. Proteinuria may be a sign of renal kidney damage. Since serum proteins are readily reabsorbed from urine, the presence of excess protein indicates either an insufficiency of absorption or impaired filtration. Diabetics may suffer from damaged nephrons and develop proteinuria. The most common cause of proteinuria is diabetes. […] Despite the available therapies of glycemic and blood pressure control, many patients continue to show progressive renal damage. Therefore, it is extremely important to identify novel interventions to halt the progression of diabetic nephropathy.

[3] = tested on: diabetic mouse (db/db) model; assay: Diabetic db/db uninephrectomized mouse model, oral Compound I; assay type: in vivo, male Lepr db (db/db) mice; conditions: 100 mg/kg per day oral; day 69 to day 128; FIG. 7
Procedure: Male Lepr db (db/db) and age- and sex-matched control mice with the same genetic background (C57BL/6) were used. Animals were randomized using blood sugar measurement (5-hours starved) at week 6 and uninephrectomy (removal of right kidney) was performed. Sham animals (C57BL/6) underwent exposition of the right kidney. Animals that underwent the sham operation were given vehicle (saline) and were used as negative controls. C57BL/6 mice that were uninephrectomized were given vehicle and were used as positive controls. Db/db mice were treated with oral administration of compound I at 100 mg/kg per day for 131 days. Serum glucose was measured every two to four weeks. Oral glucose tolerance test was performed on 16-hours starved mice at day 112. […] Fluorescence was determined and GFR calculated based on a two-compartment model using nonlinear regression curve-fitting software.

| SMILES | urinary proteins concentration ([1]; 10 mg/kg, day 84 and 126, FIG. 6) | serum glucose concentration ([1]; 50 mg/kg, day 42 to day 126, FIG. 5) | level of increase in blood glucose (delta) ([2]; 100 mg/kg oral, day 2 to day 62 post-streptozotocin, p<0.05, FIG. 1) | urinary protein (proteinuria) ([2]; 100 mg/kg oral, vs STZ+ (diabetic) animals, FIG. 3) | ketone bodies in urine ([2]; streptozotocin-diabetic rats, treated vs untreated, p<0.05, FIG. 2) | serum glucose concentration (percent increase vs C57BL/6 sham) [3] |
| --- | --- | --- | --- | --- | --- | --- |
| CCCCCCCCC(Oc1ccc(C(=O)CCCCCCC)cc1)C(=O)[O-].[Na+] (racemic) [Compound XIV, Sodium (RS)-2-[4-octanoylphenoxy]decanoate] | significant (p<0.01) decrease | significant (p<0.01) decrease | – | – | – | – |
| CCCCCc1cccc(CC(=O)[O-])c1.[Na+] [Compound I] | – | – | decrease significantly | completely abbrogated the presence of urinary protein | significantly reduce the appearance of ketone bodies in the urine; also recorded: significantly (p<0.05) reduced | significant decrease |
